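Interpolation was linear, between the two tested concentrations surrounding the appropriate level; five concentrations were tested over 48 hours in 96-well plates. GI50: concentration for 50% inhibition of growth. TGI denotes the concentration required for complete inhibition of growth.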
Experiments:
Experiment in all cases: DTP human tumour cell line panel, 48 h
786-0 renal = tested on: 786-0 renal
A498 renal = tested on: A498 renal
A549 NSCLC = tested on: A549 NSCLC
ACHN renal = tested on: ACHN renal
BT-549 breast = tested on: BT-549 breast
CAKI-1 renal = tested on: CAKI-1 renal
CCRF-CEM leukemia = tested on: CCRF-CEM leukemia
COLO 205 colon = tested on: COLO 205 colon
DU-145 prostate = tested on: DU-145 prostate
EKVX NSCLC = tested on: EKVX NSCLC
HCC-2998 colon = tested on: HCC-2998 colon
HCT-116 colon = tested on: HCT-116 colon
HCT-15 colon = tested on: HCT-15 colon
HL-60(TB) leukemia = tested on: HL-60(TB) leukemia
HOP-62 NSCLC = tested on: HOP-62 NSCLC
HOP-92 NSCLC = tested on: HOP-92 NSCLC
HS 578T breast = tested on: HS 578T breast
HT29 colon = tested on: HT29 colon
IGROV1 ovarian = tested on: IGROV1 ovarian
K-562 leukemia = tested on: K-562 leukemia
KM12 colon = tested on: KM12 colon
LOX IMVI melanoma = tested on: LOX IMVI melanoma
M14 melanoma = tested on: M14 melanoma
MALME-3M melanoma = tested on: MALME-3M melanoma
MCF7 breast = tested on: MCF7 breast
MDA-MB-231 breast = tested on: MDA-MB-231 breast
MDA-MB-435 = tested on: MDA-MB-435
MOLT-4 leukemia = tested on: MOLT-4 leukemia
NCI-H226 lung = tested on: NCI-H226 lung
NCI-H23 lung = tested on: NCI-H23 lung
NCI-H460 lung = tested on: NCI-H460 lung
NCI-H522 lung = tested on: NCI-H522 lung
NCI/ADR-RES ovarian = tested on: NCI/ADR-RES ovarian
OVCAR-3 ovarian = tested on: OVCAR-3 ovarian
OVCAR-4 ovarian = tested on: OVCAR-4 ovarian
OVCAR-5 ovarian = tested on: OVCAR-5 ovarian
OVCAR-8 ovarian = tested on: OVCAR-8 ovarian
PC-3 prostate = tested on: PC-3 prostate
RPMI-8226 leukemia = tested on: RPMI-8226 leukemia
RXF 393 renal = tested on: RXF 393 renal
SF-268 CNS = tested on: SF-268 CNS
SF-295 CNS = tested on: SF-295 CNS
SF-539 CNS = tested on: SF-539 CNS
SK-MEL-2 melanoma = tested on: SK-MEL-2 melanoma
SK-MEL-28 melanoma = tested on: SK-MEL-28 melanoma
SK-MEL-5 melanoma = tested on: SK-MEL-5 melanoma
SK-OV-3 ovarian = tested on: SK-OV-3 ovarian
SN12C renal = tested on: SN12C renal
SNB-19 CNS = tested on: SNB-19 CNS
SNB-75 CNS = tested on: SNB-75 CNS
SW-620 colon = tested on: SW-620 colon
T-47D breast = tested on: T-47D breast
TK-10 renal = tested on: TK-10 renal
U251 CNS = tested on: U251 CNS
UACC-257 melanoma = tested on: UACC-257 melanoma
UACC-62 melanoma = tested on: UACC-62 melanoma
UO-31 renal = tested on: UO-31 renal

With `CC(C)(C)CC(C)(C)c1ccc(OCCSC(=N)N)cc1` the GI50 (786-0 renal) was 1.51 µM, the TGI (786-0 renal) was 3.09 µM and the GI50 (A498 renal) was 2.34 µM. It also gave a TGI (A498 renal) of 11.5 µM, a GI50 (A549 NSCLC) of 1.91 µM and a TGI (A549 NSCLC) of 4.43 µM. The GI50 (ACHN renal) was 1.64 µM, the TGI (ACHN renal) was 3.27 µM and the GI50 (BT-549 breast) was 2.02 µM. For the same compound, the TGI (BT-549 breast) was 4.8 µM, the GI50 (CAKI-1 renal) was 3.13 µM and the TGI (CAKI-1 renal) was 13.6 µM. For the same compound, the GI50 (CCRF-CEM leukemia) was 1.99 µM, the TGI (CCRF-CEM leukemia) was 5.32 µM and the GI50 (COLO 205 colon) was 0.564 µM. The TGI (COLO 205 colon) was 2.01 µM, the GI50 (DU-145 prostate) was 1.74 µM and the TGI (DU-145 prostate) was 3.22 µM. The GI50 (EKVX NSCLC) was 1.41 µM, the TGI (EKVX NSCLC) was 2.98 µM and the GI50 (HCC-2998 colon) was 0.61 µM. It also gave a TGI (HCC-2998 colon) of 1.88 µM, a GI50 (HCT-116 colon) of 1.38 µM and a TGI (HCT-116 colon) of 2.85 µM. It also gave a GI50 (HCT-15 colon) of 1.06 µM, a TGI (HCT-15 colon) of 2.38 µM and a GI50 (HL-60(TB) leukemia) of 1.6 µM. For the same compound, the TGI (HL-60(TB) leukemia) was 3.52 µM, the GI50 (HOP-62 NSCLC) was 2.15 µM and the TGI (HOP-62 NSCLC) was 4 µM. The GI50 (HOP-92 NSCLC) was 1.14 µM, the TGI (HOP-92 NSCLC) was 2.57 µM and the GI50 (HS 578T breast) was 2.15 µM. For the same compound, the TGI (HS 578T breast) was 5.42 µM, the GI50 (HT29 colon) was 0.417 µM and the TGI (HT29 colon) was 1.85 µM. The GI50 (IGROV1 ovarian) was 2.31 µM, the TGI (IGROV1 ovarian) was 5.2 µM and the GI50 (K-562 leukemia) was 0.833 µM. For the same compound, the TGI (K-562 leukemia) was 3.86 µM, the GI50 (KM12 colon) was 1.5 µM and the TGI (KM12 colon) was 3.05 µM. It also gave a GI50 (LOX IMVI melanoma) of 1.48 µM, a TGI (LOX IMVI melanoma) of 2.92 µM and a GI50 (M14 melanoma) of 1.68 µM. It also gave a TGI (M14 melanoma) of 3.42 µM, a GI50 (MALME-3M melanoma) of 1.81 µM and a TGI (MALME-3M melanoma) of 3.46 µM. It also gave a GI50 (MCF7 breast) of 1.32 µM, a TGI (MCF7 breast) of 3 µM and a GI50 (MDA-MB-231 breast) of 1.22 µM. It also gave a TGI (MDA-MB-231 breast) of 2.8 µM, a GI50 (MDA-MB-435) of 1.45 µM and a TGI (MDA-MB-435) of 2.8 µM. The GI50 (MOLT-4 leukemia) was 1.7 µM, the TGI (MOLT-4 leukemia) was 4.8 µM and the GI50 (NCI-H226 lung) was 1.93 µM. For the same compound, the TGI (NCI-H226 lung) was 5.83 µM, the GI50 (NCI-H23 lung) was 1.81 µM and the TGI (NCI-H23 lung) was 3.68 µM. It also gave a GI50 (NCI-H460 lung) of 1.89 µM, a TGI (NCI-H460 lung) of 3.87 µM and a GI50 (NCI-H522 lung) of 1.59 µM. The TGI (NCI-H522 lung) was 3.45 µM, the GI50 (NCI/ADR-RES ovarian) was 1.87 µM and the TGI (NCI/ADR-RES ovarian) was 3.88 µM. It also gave a GI50 (OVCAR-3 ovarian) of 1.47 µM, a TGI (OVCAR-3 ovarian) of 2.89 µM and a GI50 (OVCAR-4 ovarian) of 1.43 µM. The TGI (OVCAR-4 ovarian) was 2.91 µM, the GI50 (OVCAR-5 ovarian) was 1.88 µM and the TGI (OVCAR-5 ovarian) was 3.77 µM. For the same compound, the GI50 (OVCAR-8 ovarian) was 2.08 µM, the TGI (OVCAR-8 ovarian) was 5.08 µM and the GI50 (PC-3 prostate) was 1.61 µM. The TGI (PC-3 prostate) was 4.17 µM, the GI50 (RPMI-8226 leukemia) was 1.36 µM and the TGI (RPMI-8226 leukemia) was 3.59 µM. It also gave a GI50 (RXF 393 renal) of 1.18 µM, a TGI (RXF 393 renal) of 2.58 µM and a GI50 (SF-268 CNS) of 2.01 µM. The TGI (SF-268 CNS) was 4.05 µM, the GI50 (SF-295 CNS) was 1.69 µM and the TGI (SF-295 CNS) was 3.12 µM. For the same compound, the GI50 (SF-539 CNS) was 1.75 µM, the TGI (SF-539 CNS) was 3.35 µM and the GI50 (SK-MEL-2 melanoma) was 1.96 µM. For the same compound, the TGI (SK-MEL-2 melanoma) was 3.7 µM, the GI50 (SK-MEL-28 melanoma) was 1.7 µM and the TGI (SK-MEL-28 melanoma) was 3.34 µM. For the same compound, the GI50 (SK-MEL-5 melanoma) was 1.37 µM, the TGI (SK-MEL-5 melanoma) was 2.68 µM and the GI50 (SK-OV-3 ovarian) was 2.57 µM. The TGI (SK-OV-3 ovarian) was 5.54 µM, the GI50 (SN12C renal) was 1.68 µM and the TGI (SN12C renal) was 3.21 µM. For the same compound, the GI50 (SNB-19 CNS) was 1.7 µM, the TGI (SNB-19 CNS) was 3.45 µM and the GI50 (SNB-75 CNS) was 1.43 µM. For the same compound, the TGI (SNB-75 CNS) was 2.79 µM, the GI50 (SW-620 colon) was 1.45 µM and the TGI (SW-620 colon) was 3.34 µM. It also gave a GI50 (T-47D breast) of 1.63 µM, a TGI (T-47D breast) of 3.91 µM and a GI50 (TK-10 renal) of 1.76 µM. It also gave a TGI (TK-10 renal) of 3.34 µM, a GI50 (U251 CNS) of 1.57 µM and a TGI (U251 CNS) of 3.17 µM. For the same compound, the GI50 (UACC-257 melanoma) was 1.72 µM, the TGI (UACC-257 melanoma) was 3.45 µM and the GI50 (UACC-62 melanoma) was 1.72 µM. The TGI (UACC-62 melanoma) was 3.16 µM, the GI50 (UO-31 renal) was 1.58 µM and the TGI (UO-31 renal) was 3.97 µM.

From PubChem BioAssay (NCI)
